Data as given in paper PMC12238850, “Molecular determinants for recognition of serotonylated chromatin” (Nucleic Acids Research, 2025).
Substitutions are numbered along the chain they refer to. Like-named read-outs stand apart in the source and are kept apart here.

What was measured:
Assay type in all cases: binding
[1] = molecular target: T1, TAF3 P881E (GST-tagged PHD) (Mus musculus, UniProt Q5HZG4, P881E); test: ITC of GST-tagged Taf3-PHD P881E
T1 construct: Mus musculus Taf3-PHD domain (residues 857–924); made in house; host or cells: E. coli BL21(DE3)
T1 sequence (Q5HZG4 857-924 P881E): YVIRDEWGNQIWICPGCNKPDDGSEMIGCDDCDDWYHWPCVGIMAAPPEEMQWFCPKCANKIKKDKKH
From the text: (§1) The coding sequences of Mus musculus Taf3-PHD domain (residues 857–924) and Homosapiens PHF2 (1–66), PHF8 (37–102), and BPTF(2) (2865–2921) were cloned into the pGEX2T-derived vector, pRP265NB, for bacterial expression of GST-tagged proteins. Note that the PHD fingers of M. musculus Taf3 and H. sapiens TAF3 differ in a single amino acid. A901 in mouse corresponds to T899 in human. Here, amino acid numbering corresponds to mouse Taf3 isoform 1 with UniProt ID: Q5HZG4, accessible at https://www.uniprot.org/uniprotkb/Q5HZG4/entry. Single or double mutations were introduced by mutagenesis polymerase chain reaction and validated by Sanger sequencing. A single colony of freshly transformed BL21(DE3) Escherichia coli bacteria with the corresponding construct was grown in Luria broth (LB) medium supplemented with 50 μg/ml ampicillin until an OD600 of 0.7. […]
(§2) ITC experiments were performed at 20°C with a MicroCal VP-ITC microcalorimeter (Malvern) by sequential injection of 10 μl at 300 μM histone peptide during 20 s into the sample cell containing 30 or 15 μM of GST-Taf3 (wild type or mutant) or GST-BPTF, GST-PHF2, and GST-PHF8 PHDs in ITC buffer (100 mM NaCl, 20 mM Tris–HCl, pH 7.5). […] ITC data were subsequently analysed and fitted with the one-site binding model in the MicroCal ITC Origin Analysis software 7.0 (Table 1, Figs 3B and 5A, Supplementary Table S3, and Supplementary Fig. S10). […]

[2] = molecular target: T2, TAF3 P881F (GST-tagged PHD) (Mus musculus, UniProt Q5HZG4, P881F); test: ITC of GST-tagged Taf3-PHD P881F
T2 construct: Mus musculus Taf3-PHD domain (residues 857–924); made in house; host or cells: E. coli BL21(DE3)
T2 sequence (Q5HZG4 857-924 P881F): T1 sequence (Q5HZG4 857-924 P881E) with E25F
From the text: as §1, §2

[3] = molecular target: T3, BPTF(2) PHD (2865–2921, GST-tagged) (Homo sapiens, UniProt Q12830); test: ITC of GST-tagged BPTF(2) PHD
T3 construct: BPTF(2) (2865–2921); made in house; host or cells: E. coli BL21(DE3)
From the text: as §1, §2

[4] = molecular target: T4, TAF3 W894L (GST-tagged PHD) (Mus musculus, UniProt Q5HZG4, W894L); test: ITC of GST-tagged Taf3-PHD W894L
T4 construct: Mus musculus Taf3-PHD domain (residues 857–924); made in house; host or cells: E. coli BL21(DE3)
T4 sequence (Q5HZG4 857-924 W894L): T1 sequence (Q5HZG4 857-924 P881E) with E25P, W38L
From the text: as §1, §2

[5] = molecular target: T5, TAF3 WT (GST-tagged Taf3-PHD, residues 857–924) (Mus musculus, UniProt Q5HZG4); test: ITC of GST-tagged Taf3-PHD wild type
T5 construct: Mus musculus Taf3-PHD domain (residues 857–924); made in house; host or cells: E. coli BL21(DE3)
T5 sequence (Q5HZG4 857-924): T1 sequence (Q5HZG4 857-924 P881E) with E25P
From the text: as §1, §2

[6] = ITC, 20°C, 100 mM NaCl, 20 mM Tris–HCl, pH 7.5, one-site model, ± = standard error of fit, read-out: K D

Row | Kd [1, 6] | Kd [2, 6] | Kd [3, 6] | Kd [4, 6] | Kd ([5]; ITC, 20°C, 100 mM NaCl, 20 mM Tris–HCl, pH 7.5, 300 μM peptide into 30 or 15 μM GST-PHD, one-site model, ± = standard error of fit, representative experiment, read-out: K D) | Compound | Kd [1] | Kd [2] | Kd [3] | Kd [4] | Kd [5]
1 | – | – | – | – | – | C[C@H](N)C(=O)N[C@@H](CCCNC(=N)N)C(=O)N[C@H](C(=O)N[C@@H](CCCC[N+](C)(C)C)C(=O)N[C@@H](CCC(=O)NCCc1c[nH]c2ccc(O)cc12)C(=O)N[C@H](C(=O)N[C@@H](C)C(=O)N[C@@H](CCCNC(=N)N)C(=O)N[C@@H](CCCCN)C(=O)N[C@@H](CO)C(=O)N[C@H](C(=O)NCC(N)=O)[C@@H](C)O)[C@@H](C)O)[C@@H](C)O [H3K4me3Q5ser] | 136 ± 4 nM | 124 ± 7 nM | 1240 ± 50 nM | 324 ± 18 nM | 98 ± 8 nM
2 | 148 ± 4 nM | 130 ± 4 nM | 1300 ± 49 nM | 595 ± 35 nM | 260 ± 16 nM | C[C@H](N)C(=O)N[C@@H](CCCNC(=N)N)C(=O)N[C@H](C(=O)N[C@@H](CCCC[N+](C)(C)C)C(=O)N[C@@H](CCC(N)=O)C(=O)N[C@H](C(=O)N[C@@H](C)C(=O)N[C@@H](CCCNC(=N)N)C(=O)N[C@@H](CCCCN)C(=O)N[C@@H](CO)C(=O)N[C@H](C(=O)NCC(N)=O)[C@@H](C)O)[C@@H](C)O)[C@@H](C)O [H3K4me3] | – | – | – | – | –
